Source: patent US12503426B2, “Synthetic derivatives of oleoyl-lysophosphatidylinositol (oleoyl-LPI) and uses thereof” (LIPOVEXA SRL, priority 2017, dated 2025)

Key:
[1] = test system: Glutag cells; test: GLP-1 secretion by Glutag cells; type: cell-based, murine; settings: 2 hours
Method in brief: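 Murine GLUTag and human NCI-H716 L-cells were incubated 2 h in FBS-free DMEM with LPI species, OEA or LPC, with optional 1 h pretreatment with PD98059 (50 μM) or H89 (10 μM). Total medium GLP-1 was measured by ELISA and normalised to basal control secretion.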

[2] = test system: pancreatic islets; test: Glucose-stimulated insulin secretion (GSIS) of isolated islets; type: cell-based, mice; settings: 16.7 mM glucose
Experimental: After euthanasia, pancreatic islets were isolated as described in detail elsewhere (Carter, J. D., S. B. Dula, K. L. Corbin, R. P. Wu and C. S. Nunemaker (2009), Biological Procedures Online, Vol 11(1), pp:3-31). Following purification, islets were rested overnight at 37° C. in a humidified atmosphere of 95% air and 5% CO2 in RPMI 1640 medium supplemented with 10% FBS, 100 units/ml penicillin and 0.1 mg/ml streptomycin.
Glucose-stimulated insulin secretion (GSIS) was performed on isolated mouse islets after resting them overnight in supplemented RPMI 1640 medium at 37° C. in a humidified atmosphere of 95% air and 5% CO2. Briefly, islets were hand-picked and placed in groups of five into individual micro centrifuge tubes. Islets were washed twice, then incubated with Krebs buffer (KRB, 115 mM NaCl; 4.7 mM KCl; 1.28 mM CaCl2·2H2O; 1.2 mM KH2PO4; 1.2 mM MgSO4·7H2O; 10 mM NaHCO3; 10 mM HEPES; 0.5% BSA; pH 7.4) supplemented with 1.1 mM glucose for 40 minutes at 37° C. Supernatants were discarded, then islets were incubated with KRB supplemented with 16.7 mM glucose for 20 minutes. Supernatants were collected for insulin determination using Mouse Ultrasensitive Insulin ELISA (Mercodia, Uppsala, Sweden) according to manufacturer instructions and data was reported as picograms of Insulin per islet in 20 minutes (pg/islet/20 min).

[3] = biological target: T1, human GPR119 (Homo sapiens, UniProt Q8TDV5); test: cAMP assay in GPR119 transfected COS-7 cells; type: cell-based; settings: COS-7 cells expressing human GPR119, agonists 30 min; read-out: EC50, production of cAMP
T1 construct: expressed in transfected cells; host or cells: COS-7 cells, calcium phosphate transfection
T1 sequence (Q8TDV5 1-335): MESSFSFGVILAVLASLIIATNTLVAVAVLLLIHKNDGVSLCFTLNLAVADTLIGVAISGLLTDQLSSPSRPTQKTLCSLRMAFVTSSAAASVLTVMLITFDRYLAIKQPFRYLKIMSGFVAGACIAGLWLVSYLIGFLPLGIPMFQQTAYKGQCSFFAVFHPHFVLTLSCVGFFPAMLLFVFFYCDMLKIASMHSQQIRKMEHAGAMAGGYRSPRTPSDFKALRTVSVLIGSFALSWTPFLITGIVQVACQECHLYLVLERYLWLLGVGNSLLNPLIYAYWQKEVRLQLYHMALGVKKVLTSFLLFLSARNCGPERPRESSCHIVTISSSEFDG
Experimental: COS-7 cells were cultured in Dulbecco's modified Eagle medium (DMEM) 1885 supplemented with 10% FBS, […] L-glutamine and 180 IU/ml penicillin+[…] streptomycin (Pen Strep) (Life Technologies, CA, USA) at 37° C. and 10% CO2. The COS-7 cells were transiently transfected with GPR119 or pcDNA by the calcium phosphate transfection method for 5 hours in 37° C., 10% CO2 as described by Kissow H, Hartmann B, Hoist J J, Viby N E, Hansen L S, Rosenkilde M M, Hare K J, Poulsen S S. Regul Pept. 2012. Vol: 179(1-3), pp 91-100; the disclosure of which is incorporated herein in its entirety by way of reference.
COS-7 cells were transfected with about 40 μg GPR119 DNA or pcDNA3 per […] flask. One day after transfection, the cells were seeded out (about 35,000 cell/well) in a 96 well white plate (Perkin Elmer, Massachusetts, USA). The cells were washed twice the following day and incubated for 30 min, at 37° C. with HBS and 1 mM IBMX (Sigma Aldrich, USA). Agonists were added for 30 min in the assay medium. The Hithunter® cAMP XS+ (DiscoveRx, Fremont, USA) was carried out by following the manufacturer's instructions.
Accordingly, the work outlined in this example evaluates whether activation of GPR119 by oleoyl-LPI in enteroendocrine L cell affect the proglucagon gene expression by monitoring the CREB activity. […]

- EC50 [3]: 239 nM
Substance: oleoyl-lysophosphatidylinositol [oleoyl-LPI]
- GLP-1 secretion ([1]; Glutag cells, normalised as percentage of cells treated with vehicle (control)): 126±5%
- effect of down-regulation of GPR55 on GLP-1 secretion ([1]; siGPR55 transfected Glutag cells, oleoyl-LPI 20 μM): no effect on GLP-1 secretion
- GLP-1 secretion in siGPR119-transfected cells ([1]; siGPR119 transfected Glutag cells, oleoyl-LPI 20 μM): significantly reduced the GLP-1 secretion to the basal level
- insulin secretion response to stimulation ([2]; GPR119−/− islets): completely lost the ability to respond
- enhancement of acute insulin secretion ([2]; wild type islets, oleoyl-LPI 20 μM, 20 minutes): approximately 50%
